Measurements reported in US5906922A, “Delivery of nucleic acids” (Commonwealth Scientific and Industrial Research Organisation, priority 1994, dated 1999).
Where two headings read alike, the source gives them in different places. Where a SMILES comes first, the peptide text is derived from it. The star is where a group is joined. NHC(CH2OLauroyl)3 = CCCCCCCCCCCC(=O)OCC(COC(=O)CCCCCCCCCCC)(COC(=O)CCCCCCCCCCC)N*

Tests used:
in vitro = type: cell-based, Chinese Hamster; conditions: hamster, cho cells
Experimental: (§1) An 18-mer 5'-fluoresceinated phosphorothioate oligonucleotide was transfected into CHO cells. A comparison was made between the ability of K3C7ATL3, K3ATL3 and no-agent, to transfect the oligonucleotide into the cells. The oligonucleotide was serially diluted from 121.2 μM nucleotide, to 60.6 and 30.3 μM nucleotide. The test lipopeptides were serially diluted from 84 μM , to 42 and 21 μM. These dilutions were combined in a 3×3 matrix resulting in concentrations half that described. That is, the top dilution of oligonucleotide became 60.6 μM nucleotide (3.37 μM 18-mer oligonucleotide) and lipopeptide 42 μM. The mix was allowed to incubate for 10 min at room temperature and then overlayed on CHO cells (seeded at 1×10^4 /well the previous day). washed free of serum with DDME, in a total volume of 100 μl. Wells receiving mix with no test agent had the three different concentrations of oligonucleotide overlayed under the same conditions.
(§2) After 3 hours of incubation under standard conditions of 37° C. and 5% CO2, the mix was removed and replaced with 50 μl of DDME. The cells were viewed live under the confocal microscope. The level of fluorescence was so high that the pinhole aperture for the LASER on the BioRad MRC 500 confocal microscope, was shut down to minimum. All images were then collected on the same settings for a quantitative comparison.

cells [1] = assay: β-gal reporter transfection, "y" linker non-standard amino acids; type: cell-based; conditions: K3 "y" TL3 compounds
Experimental: Peptide/fatty acyl conjugates were synthesized using the non-standard amino acids amino butyric (C3), amino caproic (C5) and amino caprylic (C7) acids as the linker groups, a tri-lysine nucleic acid binding domain and laurate for the three fatty acyl groups. In these new conjugates the DNA binding and tris/fatty acyl moieties were separated by an extra 3, 5 and 7 carbon bond lengths respectively when compared with the prototype molecule. These compounds were then tested in the standard manner described above to determine their relative capacity to transfect cells.
K3 "y" TL3 compounds, where y=C3, C5, C7, A, L, G were compared for transfection efficiency to each other and the commercial agent Lipofectamine using the standard β-gal reporter gene system described above.

Jurkat T cell line = assay: Transfection of Jurkat cells; type: cell-based, Human; conditions: FIG. 22b
Text: (§3) Increasing the length of the linker portion of peptide/fatty acyl conjugates dramatically improves their transfection properties both in overall levels of reporter gene expression and also in the proportion of cells transfected. It is particularly noticable that peak levels of transfection are achieved using these reagents at a relatively low level of toxicity. […] This improved capacity of conjugates with longer linkers to promote transfection appears to be independent of cell type.

[2] = Electron microscopy of formulated and unformulated compounds; type: physicochemical; conditions: rotary shadowed
Experimental: Solutions of formulated and unformulated compounds were analysed for potential membrane-like structure. In separate experiments the following samples were analysed:
a: Negatively stained samples of formulated compounds K3ATP2:DOPE, DOPE and the unformulated compounds K3C7ATL3 and Lipofectamine.
b: Rotary shadowed samples of K3C7ATL3 and Lipofectamine mixed with two ratios of nucleotide (plasmid).
Stock samples of liposomes at 2 mM, were diluted 1 in 10 with filtered distilled water, and mixed 1:1 with filtered negative stain (Ammonium Molybdate 2%, pH 6.5) and spread onto carbon-formvar coated copper/rhodium 200 mesh electron microscope grids, and examined in a Jeol JEM 100CX electron microscope at 60 kV at magnifications of between 33 k and 100 k.
Ratios of 0.69, and 0.25, of liposome:1 mole DNA nucleotides were diluted in water and mixed for 10 min at room temperature, spread onto carbon-formvar coated grids and rotary metal-shadowed with platinum-palladium (60:40) evaporated at an angle of 7° and examined in the electron microscope at 60 kV at magnifications between 26 k and 66 k.

CHO cells [3] = assay: Oligonucleotide transfection (18-mer fluoresceinated phosphorothioate), CHO; type: cell-based, Chinese Hamster; conditions: 3 hours
Experimental: as §1, §2
After confocal analysis, 100 μl of EMEM+10% FCS was added back to the wells and cells were incubated under standard conditions overnight. Cells were re-examined for fluorescence.

PC3 = assay: Transfection of PC3 cells; type: cell-based, human; conditions: PC3, FIG. 22a
Text: as §3

Cos 1 cells [4] = assay: β-gal microtitre plate transfection assay, Cos 1; type: cell-based, African Green Monkey
Outline: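 Cos 1 cells were transfected with β-galactosidase plasmids (mouse PGK or SV40 early promoter) across varied lipid/DNA ratios in microtitre format. The lipid/DNA ratio giving maximal expression was recorded. Viability was measured with alamar blue or MTS, where higher OD means greater viability.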

Cos 1 cells [5] = type: cell-based, African Green Monkey
Outline: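 Relative viability of Cos 1 cells exposed to lipid/DNA agents was read as MTS optical density; higher OD means greater viability. Some points came from separate experiments.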

leg muscle = assay: In vivo transfection (pGFP-N1, intramuscular); parameters: species or system hairless mouse; conditions: 10 μg pGFP-N1, 24 hours
Experimental: The plasmid pGFP-N1 (Clontech) encoding the Green Fluorescent Protein, was diluted 10 μg (in 10 μl) into 20 μl 5% dextrose in water and then combined with 2.1 μl of 10 mM K3ATL3 (10% DMSO) in 27.9 μl of 5% dextrose in water. After 10 min incubation at room temperature the mixture was injected into the leg muscle of a hairless mouse. The mouse was sacrificed after 24 hours and the muscle snap frozen on dry ice. Frozen sections of the tissue were made and analysed under the confocal microscope for fluorescence.

Cos 1 cells [6] = type: cell-based, African Green Monkey; remark: listed apart in the source
Outline: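 Cytotoxicity of transfection agents (lipid/DNA combinations, β-galactosidase plasmid under PGK or SV40 early promoter) assessed in parallel with transfection. Viability read with alamar blue or, in some runs, MTS OD; higher signal means greater relative viability.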

Hela cells [7] = assay: β-gal plate transfection assay, Hela; type: cell-based, Human; conditions: 48 hours
Experimental: (§5) Hela cells were seeded in place of Cosl or CHO cells in DME+10% FCS at a density of 2×10^4 /well and transfected with pPGKlaczNLS as described above. At 48 hours, toxicity was determined by alamar blue and the cells processed for the β-gal assay.

CHO cells [8] = assay: β-gal microtitre plate transfection assay, CHO; type: cell-based, Chinese Hamster; conditions: Table 3, CHO
Text: For experiment "c", a plasmid pPGKlaczNLS encoding β-galactosidase under the control of the mouse PGK promoter (kind gift from G.Hannan) or pSVGAL which utilises the SV40 early promoter (Sleigh, M. J. and Lockett, T. J. (1985). EMBO J. 4:3831-3837),was transfected. This experiment and assay were modified from Feigner et al J. Biol Chem. 269(4) 2550-2561 1994. This protocol allows the simultaneous assessment of 72 different combinations and concentrations of DNA and test agent in a microtitre tray. […] Cytotoxicity was assessed using alamar blue, and a sample graph is shown for experiment a.
Each of these compounds was tested for transfection ability and cytotoxicity on standard cell lines using standard conditions as described above.
(§4) The ratio of [lipid]/[DNA] at which that maximum was achieved is shown in brackets for the two different cell types in the following order; (Cos 1) (CHO). Experiments shown were carried out in Cos 1 cells, as described above. Viability was measured with the dye alamar blue . # Denotes compounds tested in a separate experiment. * Viability in this experiment was determined with MTS. OD is a measure of relative viability of the cells exposed to the different agents, and as with alamar blue, a higher value indicates greater cell viability.

Hela cells [9] = tested on: Hela cells
Experimental: as §5

CHO cells [10] = type: cell-based, Chinese Hamster
Experimental: (LEGEND--FIGS. 7, 8 and 9; none; no agent used with plasmid DNA, rb/blank; reagent blank, number following description of compound indicates no. μl of 2 mM stock (diluted with water). 7b: 100% cell survival was taken from dishes which were "mock transfected" with no DNA or transfection agent. 0% viability was assayed in the absence of cells. Viability was assessed using the dye alamar blue.)
Relative levels of cytotoxicity caused by the different agents were compared during the experiment using the dye "Alamar Blue" (Alamar, Sacramento Calif.).
as §4

cells [11] = assay: β-gal plate assay of unformulated mixtures of lipopeptides; type: cell-based; conditions: previously determined
Experimental: The optimal level of transfection achieved using the compound K3ATL3 had been previously determined as requiring ^- 5 μM K3ATL3. K3ATL3 was mixed with each of K3ATL1, K3ATL2, K3ATM3, K3ATP3 and K3ATC3 to give a total concentration of lipid of 5 μM in 100 μl at ratios of 0:5, 1:4, 2:3, 3:2, 4:1 and 5:0. K3ATM3 was similarly mixed with K3ATM1, K3ATM2 and K3ATP3. Each of the lipid mixtures was combined with a constant amount of pSVGAL DNA 0.5 μg/well and transfection allowed to proceed normally.
This was further tested by making a 4:1 molar mix of the two lipopeptides K3ATL3 and K3ATM3 and testing them in a standard plate assay which involved doubling dilutions of both the lipopeptide and DNA concentration. This was compared to expression achieved with using the pure compound K3ATL3 under the same conditions.

[12] = [nucleotide] 15.15 μM, [test agent] 10.5 μM
[13] = [nucleotide] 15.15 μM, [test agent] 21 μM
[14] = [nucleotide] 15.15 μM, [test agent] 42 μM
[15] = [nucleotide] 30.3 μM, [test agent] 10.5 μM, *less strongly fluorescing for K3ATL3
[16] = [nucleotide] 30.3 μM, [test agent] 21 μM
[17] = [nucleotide] 30.3 μM, [test agent] 42 μM
[18] = [nucleotide] 60.6 μM, [test agent] 10.5 μM, *less strongly fluorescing for K3ATL3
[19] = [nucleotide] 60.6 μM, [test agent] 21 μM
[20] = [nucleotide] 60.6 μM, [test agent] 42 μM

| Structure (SMILES) | cytotoxicity at 3 h, 42 µM (in vitro) | transfection efficiency compared to Lipofectamine (cells [1]) | % cells fluorescing (CHO cells [3]; [12]) | % cells fluorescing (CHO cells [3]; [13]) | % cells fluorescing (CHO cells [3]; [14]) | % cells fluorescing (CHO cells [3]; [15]) | % cells fluorescing (CHO cells [3]; [16]) | % cells fluorescing (CHO cells [3]; [17]) | % cells fluorescing (CHO cells [3]; [18]) | % cells fluorescing (CHO cells [3]; [19]) | % cells fluorescing (CHO cells [3]; [20]) | other results |
| --- | --- | --- | --- | --- | --- | --- | --- | --- | --- | --- | --- | --- |
| CCCCCCCCCCCC(=O)OCC(COC(=O)CCCCCCCCCCC)(COC(=O)CCCCCCCCCCC)NC(=O)CCCCCCCNC(=O)[C@H](CCCCN)NC(=O)[C@H](CCCCN)NC(=O)[C@@H](N)CCCCN [K3C7TL3] | > 90% | more efficient at transfection than Lipofectamine | 100% | 100% | 100% | 100% | 100% | 100% | 100% | 100% | 100% | transfection efficiency compared to standard single amino acid linker (cells [1]): dramatically more efficient than compounds using the standard single amino acid linker; transfection compared to lipofectamine (Jurkat T cell line): more effective transfection reagent than lipofectamine; DNA incorporation ([2]; lipopeptide : nucleotide ratio 0.69 (optimal)): most of the DNA was incorporated into collections of liposomes; DNA free in solution ([2]; ratio 0.25:1 (suboptimal)): a large amount of DNA was free in the solution; transfection compared to lipofectamine (PC3): more effective transfection reagent than lipofectamine |
| CCCCCCCCCCCC(=O)OCC(COC(=O)CCCCCCCCCCC)(COC(=O)CCCCCCCCCCC)NC(=O)[C@H](C)NC(=O)[C@H](CCCCN)NC(=O)[C@H](CCCCN)NC(=O)[C@@H](N)CCCCN [K3ATL3] (H-KKKA-{NHC(CH2OLauroyl)3}) | > 90% | more efficient at transfection than Lipofectamine | 100% | 100% | 100% | 100% | 100% | 100% | 100% | 100% | 100% | transfection, linkers A, L and G compared (Cos 1 cells [4]; "y" linker experiment c, Cos 1, trilysine trilaurate): superior in achieving transfection; ratio [lipid]/[DNA] at which maximum was achieved (Cos 1 cells [4]; Table 2, Cos 1): 1.39; units β-gal (Cos 1 cells [4]; Table 2, Cos 1, highest reading of 72 conditions): 4.95 × 10^-4 units; β-gal (Cos 1) (Cos 1 cells [4]; Table 3, Cos 1, # tested in a separate experiment): 4.95 × 10^-4; β-gal (Cos 1) (Cos 1 cells [4]; Table 3, Cos 1, highest reading of 72 conditions): 3.02 × 10^-4; MTS OD490-655 (Cos 1 cells [5]): 1.363; Viability (Cos 1) (Cos 1 cells [5]): 1.36; GFP fluorescence in motor end-plates (leg muscle): very strong fluorescence was seen in the motor end-plates; GFP fluorescence in muscle cells (leg muscle): Punctate fluorescence was observed in the cytoplasm of muscle cells; Viability (Cos 1) (Cos 1 cells [6]): 0.095; transfection ability, chain length C10 to C16 (Hela cells [7]): peak transfection efficiency at C12; ratio [lipid]/[DNA] at which maximum was achieved (CHO cells [8]): .69; β-gal (CHO) (CHO cells [8]; highest reading of 72 conditions): 7.89 × 10^-4; cell viability (Hela cells [9]): peak level of cell viability; Viability (CHO) (CHO cells [10]): 0.027; concentration required for optimal transfection (cells [11]): ~5 µM |
